Assay results taken from US20230365553A1, “COMPOUNDS AND COMPOSITIONS FOR TREATING CONDITIONS ASSOCIATED WITH STING ACTIVITY” (IFM Due, Inc., priority 2020, published 2023).

Each compound was assayed against T1, STING (Homo sapiens, UniProt Q86WV6, G230A/H232R/R293Q/R71H) (assay: STING reporter assay: luciferase reporter activity in THP1-Dual KO-IFNAR2 cells stimulated with 2′3′cGAMP). Settings: 15 μM 2′3′cGAMP, 24h, read-out: hSTING EC50.
T1 construct: host or cells: THP1-Dual KO-IFNAR2 cells
T1 sequence (Q86WV6 whole entry R71H/G230A/H232R/R293Q): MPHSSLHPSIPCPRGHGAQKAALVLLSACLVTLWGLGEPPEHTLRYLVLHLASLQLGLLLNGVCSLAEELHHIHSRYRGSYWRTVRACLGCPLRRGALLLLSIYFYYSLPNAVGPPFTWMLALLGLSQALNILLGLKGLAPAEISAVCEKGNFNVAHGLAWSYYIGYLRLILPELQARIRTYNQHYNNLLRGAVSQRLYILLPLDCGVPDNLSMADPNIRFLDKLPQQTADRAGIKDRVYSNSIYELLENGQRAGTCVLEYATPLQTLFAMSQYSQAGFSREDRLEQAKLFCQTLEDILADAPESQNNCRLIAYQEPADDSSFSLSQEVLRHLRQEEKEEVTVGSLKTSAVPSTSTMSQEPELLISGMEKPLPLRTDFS
Format: cell-based
Procedure: STING pathway activation by the compounds described herein was measured using THP 1-Dual™ cells (KO-IFNAR2).
THP1-Dual™ KO-IFNAR2 Cells (obtained from invivogen) were maintained in RPMI, 10% FCS, 5 ml P/S, 2 mM L-glut, 10 mM Hepes, and 1 mM sodium pyruvate. Compounds were spotted in empty 384 well tissue culture plates (Greiner 781182) by Echo for a final concentration of 0.0017-100 μM. Cells were plated into the TC plates at 40 μL per well, 2×10E6 cells/mL. For activation with STING ligand, 2′3′cGAMP (MW 718.38, obtained from Invivogen), was prepared in Optimem media.
The following solutions were prepared for each 1×384 plate: • Solution A: 2 mL Optimem with one of the following stimuli: • 60 μL of 10 mM 2′3′cGAMP→150 μM stock • Solution B: 2 mL Optimem with 60 μL Lipofectamine 2000→Incubate 5 min at RT
2 mL of solution A and 2 ml Solution B was mixed and incubated for 20 min at room temperature (RT). 20 μL of transfection solution (A+B) was added on top of the plated cells, with a final 2′3′cGAMP concentration of 15 μM. The plates were then centrifuged immediately at 340 g for 1 minute, after which they were incubated at 37° C., 5% CO2, >98% humidity for 24h. Luciferase reporter activity was then measured. EC50 values were calculated by using standard methods known in the art.
Luciferase reporter assay: 10 μL of supernatant from the assay was transferred to white 384-plate with flat bottom and squared wells. One pouch of QUANTI-Luc™ Plus was dissolved in 25 mL of water. 100 μL of QLC Stabilizer per 25 mL of QUANTI-Luc™ Plus solution was added. 50 μL of QUANTI-Luc™ Plus/QLC solution per well was then added. Luminescence was measured on a Platereader (e.g., Spectramax I3X (Molecular Devices GF3637001)).
Luciferase reporter activity was then measured. EC50 values were calculated by using standard methods known in the art.
In the case of `CN1CCC1C(=O)Nc1c[nH]c2ccc(-c3cnn(-c4ccc(C(F)(F)F)cc4)c3)cc12` (stereo not drawn) [Compound 254, 1-methyl-N-(5-(1-(4-(trifluoromethyl)phenyl)-1H-pyrazol-4-yl)-1H-indol-3-yl)azetidine-2-carboxamide], the EC50 is reported as 5000 to 100000 nM.
Compound `CCC(=O)Nc1c[nH]c2ccc(-c3ccc(C4(C#N)CC4)cc3)cc12` [Compound 144, N-(5-(4-(1-cyanocyclopropyl)phenyl)-1H-indol-3-yl)propionamide] has an EC50 of 5000 to 100000 nM.
With `CC(=O)Nc1c[nH]c2ccc(-c3cnn(-c4ccc(C(F)(F)F)cc4Cl)c3)cc12` [Compound 172, N-(5-(1-(2-chloro-4-(trifluoromethyl)phenyl)-1H-pyrazol-4-yl)-1H-indol-3-yl)acetamide] the EC50 was 40 to 200 nM.
`CCC(=O)Nc1c[nH]c2ccc(-c3cnn(-c4ccc(CC)cc4)c3)nc12` [Compound 164, N-(5-(1-(4-ethylphenyl)-1H-pyrazol-4-yl)-1H-pyrrolo[3,2-b]pyridin-3-yl)propionamide] showed an EC50 of 5000 to 100000 nM.
Compound `CCC(=O)Nc1c[nH]c2ccc(C3=CCN(c4ccccn4)CC3)cc12` [Compound 140, N-(5-(3,6-dihydro-2H-[1,2′-bipyridin]-4-yl)-1H-indol-3-yl)propionamide] has an EC50 of 5000 to 100000 nM.
Compound `CCc1ccc(-n2cc(-c3ccc4[nH]cc(NC(=O)CO)c4c3)cn2)cc1` [Compound 126, N-(5-(1-(4-ethylphenyl)-1H-pyrazol-4-yl)-1H-indol-3-yl)-2-hydroxyacetamide] has an EC50 of 200 to 1000 nM.
For `CCC(=O)Nc1c[nH]c2ccc(C3=CCCCC3)cc12` [Compound 141, N-(5-(cyclohex-1-en-1-yl)-1H-indol-3-yl)propionamide], the EC50 was 5000 to 100000 nM.
With `COC(C)C(=O)Nc1c[nH]c2ccc(-c3cnn(-c4ccc(C(F)(F)F)cc4)c3)cc12` (stereo not drawn) [Compound 227, 2-methoxy-N-(5-(1-(4-(trifluoromethyl)phenyl)-1H-pyrazol-4-yl)-1H-indol-3-yl)propanamide] the EC50 was 1000 to 5000 nM.
For `O=C(Nc1c[nH]c2ccc(-c3cnn(Cc4ccc(C(F)(F)F)cn4)c3)cc12)C1CCC1` [Compound 253, N-(5-(1-((5-(trifluoromethyl)pyridin-2-yl)methyl)-1H-pyrazol-4-yl)-1H-indol-3-yl)cyclobutanecarboxamide], the EC50 was 200 to 1000 nM.
In the case of `CCC(=O)Nc1c[nH]c2ccc(-c3cnn(-c4ccc(C(F)(F)F)c(C)c4)c3)cc12` [Compound 109, N-(5-(1-(3-methyl-4-(trifluoromethyl)phenyl)-1H-pyrazol-4-yl)-1H-indol-3-yl)propionamide], the EC50 is reported as 200 to 1000 nM.
With `CCC(=O)Nc1c[nH]c2ccc(-c3cnn(CC4CC4)c3)cc12` [Compound 148, N-(5-(1-(cyclopropylmethyl)-1H-pyrazol-4-yl)-1H-indol-3-yl)propionamide] the EC50 was 5000 to 100000 nM.
With `O=C(COCC(F)(F)F)Nc1c[nH]c2ccc(-c3cnn(-c4ccc(C(F)(F)F)cc4)c3)cc12` [Compound 207, 2-(2,2,2-trifluoroethoxy)-N-(5-(1-(4-(trifluoromethyl)phenyl)-1H-pyrazol-4-yl)-1H-indol-3-yl)acetamide] the EC50 was 200 to 1000 nM.
With `CC(=O)Nc1c[nH]c2ccc(-c3cnn([C@@H](C)c4cccc(C(F)(F)F)c4)c3)cc12` [Compound 175, (S)-N-(5-(1-(1-(3-(trifluoromethyl)phenyl)ethyl)-1H-pyrazol-4-yl)-1H-indol-3-yl)acetamide] the EC50 was 200 to 1000 nM.
`CC(C)(O)C(=O)Nc1c[nH]c2ccc(-c3cnn(-c4ccc(C(F)(F)F)cc4)c3)cc12` [Compound 198, 2-hydroxy-2-methyl-N-(5-(1-(4-(trifluoromethyl)phenyl)-1H-pyrazol-4-yl)-1H-indol-3-yl)propanamide] gave an EC50 of 1000 to 5000 nM.
With `CC(=O)N1CC(C(=O)Nc2c[nH]c3ccc(-c4cnn(-c5ccc(C(F)(F)F)cc5)c4)cc23)C1` [Compound 223, 1-acetyl-N-(5-(1-(4-(trifluoromethyl)phenyl)-1H-pyrazol-4-yl)-1H-indol-3-yl)azetidine-3-carboxamide] the EC50 was 1000 to 5000 nM.
For `CC(=O)N1CCCC1C(=O)Nc1c[nH]c2ccc(-c3cnn(-c4ccc(C(F)(F)F)cc4)c3)cc12` (stereo not drawn) [Compound 226, 1-acetyl-N-(5-(1-(4-(trifluoromethyl)phenyl)-1H-pyrazol-4-yl)-1H-indol-3-yl)pyrrolidine-2-carboxamide], the EC50 was 1000 to 5000 nM.
For `CC(=O)Nc1c[nH]c2ccc(-c3cnn(-c4ccc(C5CC(F)(F)C5)c(Cl)c4)c3)cc12` [Compound 169, N-(5-(1-(3-chloro-4-(3,3-difluorocyclobutyl)phenyl)-1H-pyrazol-4-yl)-1H-indol-3-yl)acetamide], the EC50 was 200 to 1000 nM.
With `CC(=O)Nc1c[nH]c2ccc(-c3cnn(-c4ccc(Cl)c(Cl)c4)c3)cc12` [Compound 168, N-(5-(1-(3,4-dichlorophenyl)-1H-pyrazol-4-yl)-1H-indol-3-yl)acetamide] the EC50 was 200 to 1000 nM.
`CCc1ccc(-n2cc(-c3ccc4[nH]cc(NC(=O)C(C)NC(=O)OC(C)(C)C)c4c3)cn2)cc1` (stereo not drawn) [Compound 114, tert-butyl (1-((5-(1-(4-ethylphenyl)-1H-pyrazol-4-yl)-1H-indol-3-yl)amino)-1-oxopropan-2-yl)carbamate] was tested, and the EC50 was 200 to 1000 nM.
In the case of `COCCOCCC(=O)Nc1c[nH]c2ccc(-c3cnn(-c4ccc(C(F)(F)F)cc4)c3)cc12` [Compound 206, 3-(2-methoxyethoxy)-N-(5-(1-(4-(trifluoromethyl)phenyl)-1H-pyrazol-4-yl)-1H-indol-3-yl)propanamide], the EC50 is reported as 200 to 1000 nM.
For `Cn1cc(C(=O)Nc2c[nH]c3ccc(-c4cnn(-c5ccc(C(F)(F)F)cc5)c4)cc23)cn1` [Compound 278, 1-methyl-N-(5-(1-(4-(trifluoromethyl)phenyl)-1H-pyrazol-4-yl)-1H-indol-3-yl)-1H-pyrazole-4-carboxamide], the EC50 was 200 to 1000 nM.
For `CCc1ccc(-n2cc(-c3ccc4[nH]cc(NC(=O)CCC#N)c4c3)cn2)cc1` [Compound 107, 3-cyano-N-(5-(1-(4-ethylphenyl)-1H-pyrazol-4-yl)-1H-indol-3-yl)propanamide], the EC50 was 200 to 1000 nM.
`O=C(Nc1c[nH]c2ccc(-c3cnn(-c4ccc(C(F)(F)F)cc4)c3)cc12)c1ccn[nH]1` [Compound 265, N-(5-(1-(4-(trifluoromethyl)phenyl)-1H-pyrazol-4-yl)-1H-indol-3-yl)-1H-pyrazole-5-carboxamide] showed an EC50 of 200 to 1000 nM.
For `CN1CC(C(=O)Nc2c[nH]c3ccc(-c4cnn(-c5ccc(C(F)(F)F)cc5)c4)cc23)C1=O` (stereo not drawn) [Compound 205, 1-methyl-2-oxo-N-(5-(1-(4-(trifluoromethyl)phenyl)-1H-pyrazol-4-yl)-1H-indol-3-yl)azetidine-3-carboxamide], the EC50 was 1000 to 5000 nM.
Compound `Cc1cc(C(=O)Nc2c[nH]c3ccc(-c4cnn(-c5ccc(C(F)(F)F)cc5)c4)cc23)on1` [Compound 271, 3-methyl-N-(5-(1-(4-(trifluoromethyl)phenyl)-1H-pyrazol-4-yl)-1H-indol-3-yl)isoxazole-5-carboxamide] has an EC50 of 200 to 1000 nM.
`CC(NS(C)(=O)=O)C(=O)Nc1c[nH]c2cc(F)c(-c3cnn(-c4ccc(C(F)(F)F)cc4)c3)cc12` (stereo not drawn) [Compound 193, N-(6-fluoro-5-(1-(4-(trifluoromethyl)phenyl)-1H-pyrazol-4-yl)-1H-indol-3-yl)-2-(methylsulfonamido)propanamide] gave an EC50 of 1000 to 5000 nM.
`O=C(Nc1c[nH]c2ccc(-c3cnn(-c4ccc(C(F)(F)F)cc4)c3)cc12)C(CO)C(F)(F)F` (stereo not drawn) [Compound 196, 3,3,3-trifluoro-2-(hydroxymethyl)-N-(5-(1-(4-(trifluoromethyl)phenyl)-1H-pyrazol-4-yl)-1H-indol-3-yl)propanamide] was tested, and the EC50 was 1000 to 5000 nM.
